≈ marks a conversion by molar mass, not a printed value. Read-outs that look alike come from different tables or passages of the source.
Assays:
[1] = PK of IV iclaprim in moderate hepatic impairment; type: in vivo, human; conditions: moderate hepatic impairment (Child-Pugh grade B)
Procedure: For example, the PK profile of 0.8 mg/kg iclaprim administered by IV was investigated in 8 subjects with mild to moderate obesity (body mass index or “BMI” 30-40) and in 8 subjects with severe obesity (BMI>40). […] Linear regression analysis indicated a strong linear relationship between AUC (and Cmax) and BMI. Thus it was clear that the body composition of the subject affected the pharmacokinetics of IV administered iclaprim, with a greater percentage of body fat causing an increase in AUC and Cmax. […] Thus there is a risk of overdosing subjects with moderate hepatic impairment, which can be mitigated by reducing the IV iclaprim dose by about 50%.

[2] = system: isolated rabbit Purkinje fibers
[3] = exposure to iclaprim in Phase I studies; conditions: human, in vivo
S. aureus = conditions: worldwide surveillance studies; cited from earlier work
S. aureus strain AH1252 = assay: neutropenic rat lung infection model; type: in vivo, Staphylococcus aureus
Procedure: S. aureus strain AH1252, a thymidine knockout of the MRSA wild type AW6 strain, was utilized for this study. The bacterial strain was diluted in a 2% alginate buffer, which was added dropwise in a ratio of 1:5 into […] to form alginate beads. The alginate beads reduce the efficacy of bacterial clearance similar to that seen in the cystic fibrosis population. A 5.25×10^4 bacterial inoculum was administered to groups of 9 rats, intratracheally, with prepared alginate bacteria suspensions, under isoflurane anesthesia. […] Twelve hours after the last treatment, rats were euthanized and lungs collected for CFU determination.

[4] = system: common Gram-positive and Gram-negative respiratory bacteria; assay: pulmonary surfactant interaction, overall effect of BPS on MIC and MICRZ; type: cell-based; conditions: 2.5% (v/v) BPS; all tested strains or isolates
Procedure: Antibacterial susceptibility testing was measured by JMI Labs (North Liberty, Iowa, USA). […] These clinical isolates were collected from US (n=4), Mexico (n=2), and Italy (n=1). Susceptibility testing was performed by broth microdilution in accordance with the Clinical and Laboratory and Standards Institute (CLSI) guidelines M07-A10 (2015) and the standard operating procedures at JMI laboratories. Minimum inhibitory concentrations (MICS) were based on CLSI criteria (2015). There are no published breakpoints for iclaprim. E. coli, K. pneumoniae, M. catarrhalis, E. faecalis, and S. aureus were tested in cation-adjusted Mueller-Hinton broth (CA-MHB). […]
Because bovine pulmonary surfactant can introduce cloudiness to the MIC testing media, antimicrobial growth inhibition was also evaluated using the colorimetric metabolic indicator resazurin (Camlab Ltd., Cambridge, UK). […] Growth inhibition was then evaluated as a visible color change from blue (no growth) to pink (robust growth) and recorded as a MIC1z value.
(§1) The MICs of iclaprim, levofloxacin, and daptomycin were determined against Gram-positive and Gram-negative isolates.
A new vial of bovine pulmonary surfactant (BPS; Survanta®; Abbott Laboratories, Columbus, Ohio) was utilized for each independent experiment. […] MICs of daptomycin were determined in CAMHB with the Ca^2+ content adjusted to 50 mg/L.

QTc interval = conditions: human, in vivo
Procedure: A second single-dose ECG study was conducted on healthy human volunteers using weight-based doses of 0.4 mg/kg and 0.8 mg/kg iclaprim base infused over 30 minutes and 1.6 mg/kg infused over 60 minutes.

[5] = system: S. aureus Clinical Isolate 825189; assay: MIC with/without bovine pulmonary surfactant; type: cell-based; conditions: Staphylococcus aureus
Procedure: (§2) Antibacterial susceptibility testing was measured by JMI Labs (North Liberty, Iowa, USA). […] These clinical isolates were collected from US (n=4), Mexico (n=2), and Italy (n=1). Susceptibility testing was performed by broth microdilution in accordance with the Clinical and Laboratory and Standards Institute (CLSI) guidelines M07-A10 (2015) and the standard operating procedures at JMI laboratories. Minimum inhibitory concentrations (MICS) were based on CLSI criteria (2015). There are no published breakpoints for iclaprim. E. coli, K. pneumoniae, M. catarrhalis, E. faecalis, and S. aureus were tested in cation-adjusted Mueller-Hinton broth (CA-MHB). S. pneumoniae were tested in CA-MHB supplemented with 2.5-5% lysed horse blood, and H. influenza were tested in Haemophilus test medium. Quality control and interpretation of results were performed in accordance with CLSI M100-S26 (2016) methods. QC ranges for iclaprim were those approved by CLSI and published in M100-S26 (2016). Iclaprim and comparator antibiotic MIC results were within the CLSI published ranges against E. coli ATCC 25922, E. faecalis ATCC 29212, E. faecalis ATCC 33186, H. influenzae ATCC 49247, K. pneumoniae ATCC 700603 (ESBL phenotype), S. aureus ATCC 29213, and S. pneumoniae ATCC 49619. Isolates were tested with MIC panels (ThermoFisher Scientific, Cleveland, Ohio, USA) of comparator antibiotics (daptomycin and levofloxacin).
(§3) Because bovine pulmonary surfactant can introduce cloudiness to the MIC testing media, antimicrobial growth inhibition was also evaluated using the colorimetric metabolic indicator resazurin (Camlab Ltd., Cambridge, UK). […] S. pneumoniae panels were omitted from resazurin analysis because the color change was obscured by the lysed horse blood present in the test medium. Growth inhibition was then evaluated as a visible color change from blue (no growth) to pink (robust growth) and recorded as a MIC1z value.
as §1
(§4) A new vial of bovine pulmonary surfactant (BPS; Survanta®; Abbott Laboratories, Columbus, Ohio) was utilized for each independent experiment. Each vial was mixed thoroughly and a 100 μL aliquot was spread on an agar plate, which was incubated overnight to confirm sterility. […] The concentration of surfactant was expressed in terms of percent volume of Survanta® suspension, which consisted of phospholipid (25 mg/mL) and surfactant proteins (<1 mg/mL) in 0.9% sodium chloride solution (Goerke, 1998). MICs of daptomycin were determined in CAMHB with the Ca^2+ content adjusted to 50 mg/L.

H. influenzae ATCC 49247 = assay: MIC with/without bovine pulmonary surfactant; type: cell-based; conditions: Haemophilus influenzae
Procedure: as §2, §3, §1, §4

E. faecalis ATCC 33186 = assay: MIC with/without bovine pulmonary surfactant; type: cell-based; conditions: Enterococcus faecalis
Procedure: as §2, §3, §1, §4

[6] = system: nosocomial pneumonia suspected or confirmed to be caused by Gram-positive pathogens; assay: Phase 2 study in nosocomial pneumonia, iclaprim versus vancomycin; type: in vivo, human
From the text: This MIC effect of surfactant on daptomycin activity has been reported to be mediated by binding of surfactant components to specific structures present on antibiotics, such as the lipophilic side-chain of daptomycin (Silverman et al., 2005). […] Collectively, the current in vitro study and a previous Phase 2 study support that iclaprim could be a potential treatment for pneumonia, including nosocomial pneumonia caused by susceptible and multidrug resistant Gram-positive bacteria.

L-type calcium channel = L-type calcium channel (Homo sapiens, UniProt Q13936); assay: L-type calcium channel inhibition; type: cell-based
Chain of L-type calcium channel (Q13936 whole entry): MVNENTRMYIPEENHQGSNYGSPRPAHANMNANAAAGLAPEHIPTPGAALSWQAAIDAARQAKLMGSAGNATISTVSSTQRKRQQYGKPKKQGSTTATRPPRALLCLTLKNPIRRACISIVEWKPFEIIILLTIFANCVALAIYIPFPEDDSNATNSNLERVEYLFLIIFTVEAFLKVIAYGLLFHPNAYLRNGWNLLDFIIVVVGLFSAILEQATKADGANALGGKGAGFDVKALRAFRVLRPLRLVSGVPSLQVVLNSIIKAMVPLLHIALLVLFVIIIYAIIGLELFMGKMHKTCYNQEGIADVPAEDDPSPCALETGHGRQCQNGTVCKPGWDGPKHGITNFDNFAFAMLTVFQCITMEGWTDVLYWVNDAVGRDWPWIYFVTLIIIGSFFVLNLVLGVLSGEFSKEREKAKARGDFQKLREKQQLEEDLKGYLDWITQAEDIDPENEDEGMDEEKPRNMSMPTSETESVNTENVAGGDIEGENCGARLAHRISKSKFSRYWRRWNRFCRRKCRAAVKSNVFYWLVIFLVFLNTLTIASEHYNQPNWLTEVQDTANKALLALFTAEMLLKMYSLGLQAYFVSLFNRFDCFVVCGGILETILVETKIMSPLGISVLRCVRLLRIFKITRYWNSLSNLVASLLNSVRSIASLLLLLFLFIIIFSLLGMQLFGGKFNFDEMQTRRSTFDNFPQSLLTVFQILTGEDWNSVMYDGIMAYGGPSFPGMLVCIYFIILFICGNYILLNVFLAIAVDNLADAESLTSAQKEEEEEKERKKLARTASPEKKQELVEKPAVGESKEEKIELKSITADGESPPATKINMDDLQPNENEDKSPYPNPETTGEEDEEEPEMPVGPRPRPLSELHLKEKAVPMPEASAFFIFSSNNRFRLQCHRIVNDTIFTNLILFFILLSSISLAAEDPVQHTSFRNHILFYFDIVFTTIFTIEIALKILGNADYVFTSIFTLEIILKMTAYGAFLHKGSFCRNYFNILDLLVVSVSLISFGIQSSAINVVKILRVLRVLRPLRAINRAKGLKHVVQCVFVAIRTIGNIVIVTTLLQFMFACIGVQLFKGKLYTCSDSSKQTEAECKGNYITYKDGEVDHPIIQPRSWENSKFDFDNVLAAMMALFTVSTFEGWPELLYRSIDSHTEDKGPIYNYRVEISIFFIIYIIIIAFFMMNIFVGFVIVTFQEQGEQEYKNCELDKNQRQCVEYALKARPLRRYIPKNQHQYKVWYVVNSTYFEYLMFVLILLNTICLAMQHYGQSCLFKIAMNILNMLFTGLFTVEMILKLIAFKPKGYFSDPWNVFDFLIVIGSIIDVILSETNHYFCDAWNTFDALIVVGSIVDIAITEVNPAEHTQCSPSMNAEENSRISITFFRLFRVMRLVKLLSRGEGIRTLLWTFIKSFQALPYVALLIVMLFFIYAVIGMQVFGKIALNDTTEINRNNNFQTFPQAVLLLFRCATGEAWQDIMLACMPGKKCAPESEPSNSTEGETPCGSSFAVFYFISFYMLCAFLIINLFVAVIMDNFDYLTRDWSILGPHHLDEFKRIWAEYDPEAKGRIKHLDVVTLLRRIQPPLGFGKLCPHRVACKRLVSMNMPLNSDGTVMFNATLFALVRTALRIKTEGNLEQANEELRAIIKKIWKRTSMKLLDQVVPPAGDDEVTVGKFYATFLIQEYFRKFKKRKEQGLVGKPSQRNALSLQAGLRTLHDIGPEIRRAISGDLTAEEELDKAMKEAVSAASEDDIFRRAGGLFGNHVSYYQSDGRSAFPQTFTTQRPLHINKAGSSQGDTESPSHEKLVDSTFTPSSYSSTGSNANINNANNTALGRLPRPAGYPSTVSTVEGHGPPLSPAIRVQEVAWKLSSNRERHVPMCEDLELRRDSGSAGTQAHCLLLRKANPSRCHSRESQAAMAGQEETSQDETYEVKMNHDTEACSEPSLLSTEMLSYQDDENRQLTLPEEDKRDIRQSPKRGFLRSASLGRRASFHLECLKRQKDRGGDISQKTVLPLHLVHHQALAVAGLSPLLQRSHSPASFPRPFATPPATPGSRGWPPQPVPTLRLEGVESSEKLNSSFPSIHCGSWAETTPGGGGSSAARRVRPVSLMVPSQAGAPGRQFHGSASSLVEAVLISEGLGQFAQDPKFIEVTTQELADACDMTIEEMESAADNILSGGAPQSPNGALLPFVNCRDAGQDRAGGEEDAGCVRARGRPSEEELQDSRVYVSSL

[7] = 13-week toxicology study in the marmoset, AUC at NOAEL; type: in vivo; conditions: marmoset females

COc1cc(Cc2cnc(N)nc2N)c2c(c1OC)OC(C1CC1)C=C2 (racemic) [Iclaprim]
increase in AUC [1]: 2.5 fold
increase in Cmax [1]: 1.4 fold
concentration at which action potential duration was increased [2]: above 1 μM
AUC ([3]; 1 mg/kg): 2,575 ± 757 hr × ng/mL
AUC ([3]; 4 mg/kg): 8,894 [29.0] hr × ng/mL
Cmax ([3]; 4 mg/kg): 2,851 [19.2] ng/mL
MIC90 (S. aureus): 0.12 mg/L (≈ 0.339 µM)
72 hour lungs log10CFU/Lung (CFU/gram of lung) (S. aureus strain AH1252; 80 mg/kg SC/BID): 3.34
Change in CFUs from 2 hr. infection controls (S. aureus strain AH1252; 80 mg/kg SC/BID): 0.22 log 10 CFU
Change in CFUs from 72 hr. infection controls (S. aureus strain AH1252; 80 mg/kg SC/BID): −5.34 log 10 CFU
Survival >60 hrs (S. aureus strain AH1252; 80 mg/kg SC/BID (160 mg/kg/day) 3 days): 9/9
CFU reduction from the 72 hour infection controls (S. aureus strain AH1252; iclaprim 80 mg/kg SC/BID): 5.34 log 10 CFU
effect of BPS on MIC and MICRZ values [4]: minimal or no effect
post-infusion QTcF prolongation from baseline (no subject above) (QTc interval): ≤ 60 ms
MIC ([5]; 2.5% v/v BPS, read-out: MIC, CLSI: +BPS): 0.12 mg/L (≈ 0.339 µM)
MIC ([5]; 2.5% v/v BPS, read-out: MIC, Resazurin: +BPS): 0.12 mg/L (≈ 0.339 µM)
MIC ([5]; no BPS, read-out: MIC, CLSI): 0.06 mg/L (≈ 0.169 µM)
MIC ([5]; no BPS, read-out: MIC, Resazurin): 0.06 mg/L (≈ 0.169 µM)
MIC (H. influenzae ATCC 49247; ATCC49247, 2.5% v/v BPS, read-out: MIC, Resazurin: +BPS): 0.25 mg/L (≈ 0.705 µM)
MIC (H. influenzae ATCC 49247; ATCC49247, no BPS, read-out: MIC, Resazurin): 0.25 mg/L (≈ 0.705 µM)
MIC (E. faecalis ATCC 33186; ATCC33186, 2.5% v/v BPS, read-out: MIC, Resazurin: +BPS): ≤ 0.015 mg/L
MIC (E. faecalis ATCC 33186; ATCC33186, no BPS, read-out: MIC, Resazurin): 0.03 mg/L (≈ 0.0846 µM)
cure rate, intent-to-treat population ([6]; iclaprim 0.8 mg/kg IV q12h, test of cure visit (17 of 23)): 73.9%
cure rate, intent-to-treat population ([6]; iclaprim 1.6 mg/kg IV q8h, test of cure visit (15 of 24)): 62.5%
death rate within 28 days of the start of treatment ([6]; iclaprim q8h (3 of 24)): 12.5%
death rate within 28 days of the start of treatment ([6]; iclaprim q12h (2 of 23)): 8.7%
IC50 (L-type calcium channel): 46 µM
AUC achieved at the NOAEL [7]: 26,600 hr×ng/mL

Source: US20190117653A1, “SYSTEMS AND METHODS FOR TREATING BACTERIAL INFECTION” (priority 2016, published 2019)
